Experimental data as given in patent US10660578B2, “Combining electronic monitoring with inhaled pharmacological therapy to manage cardiac arrhythmias including atrial fibrillation” (InCarda Therapeutics, Inc., priority 2016, dated 2020).

What was measured:
[1] = tested on: atrial fibrillation; experiment: Administration of diltiazem by inhalation in atrial fibrillation; format: in vivo
Text: Inhalation avoids the initial dilution of drug in the body as compared to intravenous or oral dosing. Inhalation also avoids first-pass metabolism, such as hepatic metabolism. For instance, calcium channel blockers, such as diltiazem, undergo significant hepatic metabolism when taken orally. Inhalation allows rapid delivery of the parent diltiazem compound to the heart as a bolus. […] Thus, administration by inhalation of diltiazem is useful for treating both atrial fibrillation and supraventricular tachycardia (SVT). In contrast, administration by IV of diltiazem is typically only used for converting SVT to normal sinus rhythm and in atrial fibrillation to reduce heart rate (not for converting to normal sinus rhythm). Inhalation also avoids red blood cell metabolism. For instance, the reduced dilution and short route associated with inhalation reduces red blood cell metabolism of esmolol. Inhalation may also avoid reduced blood pressure and fainting. For instance, IV administration of beta blockers, such as esmolol, and/or Class I antiarrhythmics such as flecainide, may reduce mean arterial blood pressure (MAP). Inhalation can allow rapid delivery of esmolol and/or flecainide without reducing MAP. […]

[2] = tested on: PAF; details: cited from earlier work
[3] = Assessment of different inhalers with flecainide acetate (FA) solution at 30 mg/ml; format: physicochemical
Description: Different inhalers were then tested to assess compatibility of material to the different materials of construction and different types of inhalers (Table 2).
The Trek S from PARI was able to deliver the same dose in about 3 minutes.

[4] = tested on: animal displaying atrial fibrillation; experiment: Treatment of atrial fibrillation by intra-tracheal flecainide, monitored by smartphone ECG and Prucka System; format: in vivo; details: intra-tracheal administration of 0.75 mg/kg; animal in atrial fibrillation
Description: An exemplary smart phone app was installed on a smartphone in order to monitor the efficacy of FA at ceasing incidence of atrial fibrillation. The smartphone app allowed for communication between the smart phone and an electronic monitoring chip used to produce an ECG.
The smart phone device was then used to monitor the treatment efficacy of an intra-tracheal administration of 0.75 mg/kg flecainide in treating atrial fibrillation. FIG. 9 depicts an exemplary ECG produced from a smartphone as compared to a Prucka System in an animal displaying atrial fibrillation. Again, the traces show excellent correlation between the two devices.

COc1ccc([C@@H]2Sc3ccccc3N(CCN(C)C)C(=O)[C@@H]2OC(C)=O)cc1 [diltiazem]
Effect on atrial fibrillation rhythm [1]: converted atrial fibrillation to normal sinus rhythm
Effect on heart rate [1]: reduced heart rate

O=C(NCC1CCCCN1)c1cc(OCC(F)(F)F)ccc1OCC(F)(F)F (stereo not shown) [flecainide]
Average time to terminate the PAF ([2]; oral bolus of 300 mg (max per day) at one time): 100 min
Effectiveness of oral flecainide ([2]; oral): 30-50%
Time to deliver a 30-40 mg dose ([3]; Pari e-rapid or Lumiscope inhalers, 30-40 mg dose): less than 2 minutes
Time to deliver a 30-40 mg dose ([3]; Trek S from PARI, same 30-40 mg dose): about 3 minutes
Effect on atrial fibrillation (ECG rhythm) [4]: return to sinus rhythm
